One assay has as its system MCF-7 cells. The assay is described as follows: In vitro test of cell activity (MCF-7 cells, insulin stimulation, ELISA-One fluorescence). Format: cell-based. To be noted: Homo sapiens, MCF7, MCF-7 cells; for inhibition at 0.5 µM: conc. 0.5 μM. The gist of the method:
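Fluorescence ELISA-One read-out on cell lysates, antibody-captured 1 h at room temperature. Before lysis, MCF-7 cells (2.5×10^4/well) were pretreated 2 h with compound in serum-free medium, single dose for screening or a dilution series for IC50, then stimulated 30 min with insulin ([…] final).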

The target in another assay is T1, PI3K (p110α) kinase (Homo sapiens, UniProt P42336).
T1 construct: made in house
T1 sequence (P42336 whole entry): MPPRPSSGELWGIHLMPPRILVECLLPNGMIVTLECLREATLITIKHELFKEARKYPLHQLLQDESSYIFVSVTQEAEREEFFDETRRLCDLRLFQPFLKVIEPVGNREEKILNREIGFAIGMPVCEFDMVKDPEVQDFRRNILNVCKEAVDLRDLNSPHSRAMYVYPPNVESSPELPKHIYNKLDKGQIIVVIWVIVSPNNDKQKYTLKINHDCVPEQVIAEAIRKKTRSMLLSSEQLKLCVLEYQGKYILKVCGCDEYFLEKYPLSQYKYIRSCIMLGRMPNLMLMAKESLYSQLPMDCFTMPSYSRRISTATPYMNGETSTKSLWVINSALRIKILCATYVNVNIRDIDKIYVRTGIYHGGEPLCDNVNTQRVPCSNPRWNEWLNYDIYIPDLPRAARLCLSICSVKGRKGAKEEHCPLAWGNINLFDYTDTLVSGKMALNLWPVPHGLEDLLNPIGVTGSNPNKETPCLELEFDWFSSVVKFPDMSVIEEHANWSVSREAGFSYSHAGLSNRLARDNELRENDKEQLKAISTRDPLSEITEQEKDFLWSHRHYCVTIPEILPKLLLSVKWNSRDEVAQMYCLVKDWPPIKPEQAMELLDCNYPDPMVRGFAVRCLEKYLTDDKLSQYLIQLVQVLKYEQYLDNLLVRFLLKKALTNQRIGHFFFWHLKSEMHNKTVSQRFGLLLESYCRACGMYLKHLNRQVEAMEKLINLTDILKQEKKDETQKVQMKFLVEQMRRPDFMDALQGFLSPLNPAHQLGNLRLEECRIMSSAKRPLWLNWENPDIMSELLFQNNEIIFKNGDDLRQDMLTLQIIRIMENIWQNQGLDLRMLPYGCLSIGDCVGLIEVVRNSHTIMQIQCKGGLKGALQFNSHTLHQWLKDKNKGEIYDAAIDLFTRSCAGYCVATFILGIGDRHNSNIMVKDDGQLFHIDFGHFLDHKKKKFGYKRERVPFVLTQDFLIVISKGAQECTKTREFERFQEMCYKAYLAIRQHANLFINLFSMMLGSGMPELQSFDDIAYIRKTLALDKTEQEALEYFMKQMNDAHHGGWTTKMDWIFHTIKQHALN
The assay is described as follows: PI3K (p110α) kinase assay (PI3K HTRF Assay). Format: biochemical. To be noted: in vitro enzyme activity assay, 10 μM PIP2, read-out: PI3K (p110α) enzyme activity_IC50. The text has this:
Conclusion: The compounds of the present invention have significant inhibitory effect on mTOR/PI3K. Example In Vitro Enzyme Activity Assay 1. The experimental procedures and methods of PI3K (p110α) kinase assay: 1) Experimental Objective
The objective was to evaluate the inhibitory effect of the subject samples on PI3K (p110α) kinase activity at molecular level.
(§1) PerkinElmer Envision 2104 Multilabel Reader.
PI 3-Kinase HTRF Assay (384 wells) was purchased from Upstate (Millipore) company: PI3K (p110α) kinase was made in our lab.
c) Experimental procedures
Each solution was prepared according to the instructions provided in the Kinase PI 3-Kinase HTRF Assay. The kinase reaction was carried out in white 384-well plates (Proxiplate-384 plus), 0.5 μl of DMSO (the concentration was consistent with the highest concentration of DMSO for the test compounds) was added to each of the two control wells with and without enzyme, and then 0.5 μl of a series of different concentrations of the test compounds was added to each well to be tested. The kinase reaction liquid (10 μM substrate PIP2, 0.5 ng PI3K (p110α)) was added to the control well containing enzyme and the test wells, while only working reaction liquid (10 μM substrate PIP2) was added to the control well without enzyme, and finally, 5 μM ATP working reaction liquid was added to activate the reaction. After the reaction was carried out at room temperature for 30 min, the stop solution was added to each well to terminate the kinase reaction. After the mixture was fully mixed, the detection liquid was added to each well and fully mixed. The plate was sealed with Parafilm and placed in the dark. After incubated overnight, the mixture was detected.
(§2) The IC50 value was calculated through the GraphPad software after plotting the relative inhibitory rate versus concentration.

A further assay addresses T2, mTOR kinase (Homo sapiens, UniProt P42345).
T2 construct: made in house
The assay is described as follows: mTOR kinase assay. The format is biochemical. The note with it: in vitro enzyme activity assay; ATP 100 μM; read-out: mTOR enzyme activity_IC50. How it is done:
2. Experimental Procedures and Methods of the mTOR Kinase Assay
The objective was to evaluate the inhibitory effect of the subject samples on the mTOR kinase activity at molecular level.
as §1
The mTOR Kinase Assay (384 wells) was purchased from PerkinElmer company; the mTOR kinase was made in our lab.
Each solution was prepared according to the instructions provided in the mTOR Kinase Assay. The kinase reaction was carried out in white 384-well plates (Proxiplate-384 plus). 2.5 μl of DMSO (the concentration was consistent with the highest concentration of DMSO for the test compounds) was added to each of the two control wells with and without enzyme, and then 2.5 μl of a series of different concentrations of the test compounds was added to each test well. ULight-4E-BP1 (Thr37/46) PeptideATP mix (the final concentration of ATP was 100 μM) and 5 μl of mTOR kinase were added to the control well containing enzyme as well as the test wells, and fully mixed. The plate was sealed with Parafilm and incubated for 2 h. Then 5 μl of stop solution was added and incubated for 5 minutes. Afterwards, 5 μl of Detection Mix (Eu-anti-phospho-4E-BP1 (Thr37/46) Antibody, the final concentration was 2 nM) was added and incubated for 1 h, and then the mixture was detected.
as §2

Where two headings read alike, the source gives them in different places. Bounds are passed on as bounds.

Regarding `COc1ncc(-c2ccc3ncc(Cl)c(=O)n3c2)cc1NS(=O)(=O)c1ccc(Cl)s1` [compound 144], the results for the inhibition at 0.5 µM in the assay on MCF-7 cells (read-out: % inhibition AKT) and in the assay with MCF-7 cells (read-out: % inhibition p70s6k) were 95.8% and 89.4%, respectively. For the same compound, the IC50 was at most 0.05 µM with MCF-7 cells (read-out: IC50 p-AKT), at most 0.05 µM with MCF-7 cells (read-out: IC50 p-p70S6K), at most 0.001 µM at PI3K (p110α) kinase and at most 0.001 µM on mTOR kinase.

The values above are taken from patent US9868737B2, “Pyridino[1,2-A]pyrimidone analogue used as MTOR/P13K inhibitor” (CISEN PHARMACEUTICAL CO., LTD., priority 2014, dated 2018).
